Assay [1] relates to Phospho-ERK1/2(THR202/TYR204) in NCI-H358 cells express KRAS G12C. Nature of the assay: Phospho-ERK1/2(THR202/TYR204) HTRF assay. Format: cell-based. To be noted: Homo sapiens; NCI-H358, 2 hours incubation; read-out: p-ERK inhibition in NCI-H358 IC50. Summed up: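 Compounds applied to attached cells for 2 h at 37 °C in RPMI 1640 with 0.1% FBS. Lysate phospho-ERK1/2 detected by HTRF after 4 h antibody incubation at 25 °C; IC50 from 4-parameter logistic fit.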
On the technique in general: Time-resolved FRET reads energy transfer from a long-lived donor to a nearby acceptor.

In assay [2] the test system is NCI-H358 cells express KRAS G12C. In words: Cell growth inhibition assay (CCK-8). It is filed as cell-based. To be noted: Homo sapiens, 144 h; NCI-H358, 6 days incubation. The method, boiled down: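 Antiproliferative read-out: KRAS G12C-mutant NCI-H358 lung cancer cells (3000/well) exposed to compounds in RPMI 1640 with 10% FBS for 6 days at 37°C. Viability by CCK-8 (OD450) after 1.5-2 h; IC50 from 4-parameter logistic fit.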

The target of a further assay is T1, KRAS G12C (Homo sapiens, UniProt P01116, G12C).
T1 construct: HIS-KRAS (G12C, aa 2-185, Sino biological); purchased Sino biological
T1 sequence (P01116 2-185 isoform P01116-2 G12C): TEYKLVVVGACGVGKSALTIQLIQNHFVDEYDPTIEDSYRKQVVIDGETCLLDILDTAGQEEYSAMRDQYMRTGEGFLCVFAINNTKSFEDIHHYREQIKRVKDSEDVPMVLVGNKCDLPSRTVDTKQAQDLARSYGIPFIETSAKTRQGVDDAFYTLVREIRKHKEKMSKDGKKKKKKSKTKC
Nature of the assay: SOS1 catalyzed nucleotide exchange assay (TR-FRET). It is filed as biochemical. To be noted: GDP-loaded HIS-KRAS(G12C), 1 hour pre-incubation with compound. The method, boiled down:
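EDTA-stripped, GDP-loaded His-KRAS G12C (aa 2-185; 3 nM final) preincubated 1 h with compound, then SOS1 ExD (aa 564-1049; 2 μM) and BODIPY-FL GTP (80 nM) added for 4 h at 25 °C. TR-FRET via anti-His Tb cryptate (515/486 nm ratio); IC50 from 4-parameter logistic fit.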

pIC50: −log10 of the molar value.

In general, pIC50 refers to the negative decadic logarithm of the IC50, by convention in mol/L. `C=CC(=O)N1CCN(c2nc(OCC3(CN4CCCC4)CC3)nc3c2CCN(c2cccc4cccc(Cl)c24)C3)CC1CC#N` (stereo not drawn) [Compound 61, 2-(1-acryloyl-4-(7-(8-chloronaphthalen-1-yl)-2-((1-(pyrrolidin-1-ylmethyl)cyclopropyl)methoxy)-5,6,7,8-tetrahydropyrido[3,4-d]pyrimidin-4-yl)piperazin-2-yl)acetonitrile]: the figures for the pIC50 (in assay [1]; in assay [2]; on KRAS G12C) were 7.79, 7.60 and 8.84, respectively.
For the compound `C=CC(=O)N1CCN(c2nc(OCC3(CN4CC(F)C4)CC3)nc3c2CCN(c2cccc4cccc(C)c24)C3)CC1CC#N` (stereo not drawn) [Compound 62, 2-(1-acryloyl-4-(2-((1-((3-fluoroazetidin-1-yl)methyl)cyclopropyl)methoxy)-7-(8-methylnaphthalen-1-yl)-5,6,7,8-tetrahydropyrido[3,4-d]pyrimidin-4-yl)piperazin-2-yl)acetonitrile], the pIC50 in assay [1] is 7.37; in assay [2], 7.17; at KRAS G12C, 8.63.
The matching figures for `C=CC(=O)N1CCN(c2nc(OCC3(C(=O)N4CCN(C)CC4)CC3)nc3c2CCN(c2cccc4cccc(C)c24)C3)CC1CC#N` (stereo not drawn) [Compound 63, 2-(1-acryloyl-4-(7-(8-methylnaphthalen-1-yl)-2-((1-(4-methylpiperazine-1-carbonyl)cyclopropyl)methoxy)-5,6,7,8-tetrahydropyrido[3,4-d]pyrimidin-4-yl)piperazin-2-yl)acetonitrile]: 6.27, 6.07 and 7.51.
The corresponding values for `C=CC(=O)N1CCN(c2nc(OCC3(CN(C)CCN(C)C)CC3)nc3c2CCN(c2cccc4cccc(C)c24)C3)CC1CC#N` (stereo not drawn) [Compound 64, 2-(1-acryloyl-4-(2-((1-(((2-(dimethylamino)ethyl)(methyl)amino)methyl)cyclopropyl)methoxy)-7-(8-methylnaphthalen-1-yl)-5,6,7,8-tetrahydropyrido[3,4-d]pyrimidin-4-yl)piperazin-2-yl)acetonitrile] are 6.91, 7.13 and 8.77.
The matching figures for `C=CC(=O)N1CCN(c2nc(OCC3(CN4CC[C@H](N(C)C)C4)CC3)nc3c2CCN(c2cccc4cccc(C)c24)C3)CC1CC#N` (stereo partly drawn) [Compound 65, 2-(1-acryloyl-4-(2-((1-(((S)-3-(dimethylamino)pyrrolidin-1-yl)methyl)cyclopropyl)methoxy)-7-(8-methylnaphthalen-1-yl)-5,6,7,8-tetrahydropyrido[3,4-d]pyrimidin-4-yl)piperazin-2-yl)acetonitrile]: 7.06, 7.48 and 8.84.
Turning to `C=CC(=O)N1CCN(c2nc(OCC3(CN4CCN(C(C)=O)CC4)CC3)nc3c2CCN(c2cccc4cccc(C)c24)C3)CC1CC#N` (stereo not drawn) [Compound 66, 2-(4-(2-((1-((4-acetylpiperazin-1-yl)methyl)cyclopropyl)methoxy)-7-(8-methylnaphthalen-1-yl)-5,6,7,8-tetrahydropyrido[3,4-d]pyrimidin-4-yl)-1-acryloylpiperazin-2-yl)acetonitrile], the figures for the pIC50 (in assay [1]; in assay [2]; on KRAS G12C) were 7.87, 7.60 and 8.84, respectively.
With `Cc1cccc2cccc(N3CCc4c(nc(OCC5(CN(C)C)CC5)nc4N4CCN(C(=O)/C=C/CO)C(CC#N)C4)C3)c12` (stereo not drawn) [Compound 69, (E)-2-(4-(2-((1-((dimethylamino)methyl)cyclopropyl)methoxy)-7-(8-methylnaphthalen-1-yl)-5,6,7,8-tetrahydropyrido[3,4-d]pyrimidin-4-yl)-1-(4-hydroxybut-2-enoyl)piperazin-2-yl)acetonitrile], the pIC50 was 6.80 in assay [1], 7.11 in assay [2] and 8.56 on KRAS G12C.
The corresponding values for `COC/C=C/C(=O)N1CCN(c2nc(OCC3(CN(C)C)CC3)nc3c2CCN(c2cccc4cccc(C)c24)C3)CC1CC#N` (stereo not drawn) [Compound 70, (E)-2-(4-(2-((1-((dimethylamino)methyl)cyclopropyl)methoxy)-7-(8-methylnaphthalen-1-yl)-5,6,7,8-tetrahydropyrido[3,4-d]pyrimidin-4-yl)-1-(4-methoxybut-2-enoyl)piperazin-2-yl)acetonitrile] are 6.76, 6.71 and 8.47.
Regarding `C=C(F)C(=O)N1CCN(c2nc(OCC3(CN4CCN(C)CC4)CC3)nc3c2CCN(c2cccc4cccc(C)c24)C3)CC1CC#N` (stereo not drawn) [Compound 71, 2-(1-(2-fluoroacryloyl)-4-(7-(8-methylnaphthalen-1-yl)-2-((1-((4-methylpiperazin-1-yl)methyl)cyclopropyl)methoxy)-5,6,7,8-tetrahydropyrido[3,4-d]pyrimidin-4-yl)piperazin-2-yl)acetonitrile], the figures for the pIC50 (in assay [1]; in assay [2]; at KRAS G12C) were 6.30, 6.43 and 8.12, respectively.
As for `C=C(F)C(=O)N1CCN(c2nc(OCC3(CN4CCCC4)CC3)nc3c2CCN(c2cccc4cccc(C)c24)C3)CC1CC#N` (stereo not drawn) [Compound 72, 2-(1-(2-fluoroacryloyl)-4-(7-(8-methylnaphthalen-1-yl)-2-((1-(pyrrolidin-1-ylmethyl)cyclopropyl)methoxy)-5,6,7,8-tetrahydropyrido[3,4-d]pyrimidin-4-yl)piperazin-2-yl)acetonitrile], the negative logarithm of the IC50 (pIC50) was 6.67 in assay [1], 6.42 in assay [2] and 7.93 on KRAS G12C.
Turning to `C=C(F)C(=O)N1CCN(c2nc(OCC3(CN4CCC4)CC3)nc3c2CCN(c2cccc4cccc(C)c24)C3)CC1CC#N` (stereo not drawn) [Compound 73, 2-(4-(2-((1-(azetidin-1-ylmethyl)cyclopropyl)methoxy)-7-(8-methylnaphthalen-1-yl)-5,6,7,8-tetrahydropyrido[3,4-d]pyrimidin-4-yl)-1-(2-fluoroacryloyl)piperazin-2-yl)acetonitrile], the pIC50 is 6.02 in assay [1], 6.05 in assay [2] and 7.77 at KRAS G12C.
In the case of `C/C=C/C(=O)N1CCN(c2nc(OCC3(CN4CCCC4)CC3)nc3c2CCN(c2cccc4cccc(C)c24)C3)CC1CC#N` (stereo not drawn) [Compound 74, (E)-2-(1-(but-2-enoyl)-4-(7-(8-methylnaphthalen-1-yl)-2-((1-(pyrrolidin-1-ylmethyl)cyclopropyl)methoxy)-5,6,7,8-tetrahydropyrido[3,4-d]pyrimidin-4-yl)piperazin-2-yl)acetonitrile], the results for the pIC50 (in assay [1]; in assay [2]; on KRAS G12C) were under 6.30, 5.82 and 7.18, respectively.
Consider `C=C(F)C(=O)N1CCN(c2nc(OCC3(CN4CC(N(C)C)C4)CC3)nc3c2CCN(c2cccc4cccc(C)c24)C3)CC1CC#N` (stereo not drawn) [Compound 75, 2-(4-(2-((1-((3-(dimethylamino)azetidin-1-yl)methyl)cyclopropyl)methoxy)-7-(8-methylnaphthalen-1-yl)-5,6,7,8-tetrahydropyrido[3,4-d]pyrimidin-4-yl)-1-(2-fluoroacryloyl)piperazin-2-yl)acetonitrile], for which the results for the pIC50 (in assay [1]; in assay [2]; on KRAS G12C) were 6.39, 6.63 and 8.14, respectively.
The corresponding values for `C=C(F)C(=O)N1CCN(c2nc(OCC3(CN(CC)CC)CC3)nc3c2CCN(c2cccc4cccc(C)c24)C3)CC1CC#N` (stereo not drawn) [Compound 76, 2-(4-(2-((1-((diethylamino)methyl)cyclopropyl)methoxy)-7-(8-methylnaphthalen-1-yl)-5,6,7,8-tetrahydropyrido[3,4-d]pyrimidin-4-yl)-1-(2-fluoroacryloyl)piperazin-2-yl)acetonitrile] are 6.45, 6.38 and 7.93.
The corresponding values for `Cc1cccc2cccc(N3CCc4c(nc(OCC5(CN(C)C)CC5)nc4N4CCN(C(=O)/C=C/CF)C(CC#N)C4)C3)c12` (stereo not drawn) [Compound 77, (E)-2-(4-(2-((1-((dimethylamino)methyl)cyclopropyl)methoxy)-7-(8-methylnaphthalen-1-yl)-5,6,7,8-tetrahydropyrido[3,4-d]pyrimidin-4-yl)-1-(4-fluorobut-2-enoyl)piperazin-2-yl)acetonitrile] are 7.23, 7.54 and 8.91.
The corresponding values for `C=C(F)C(=O)N1CCN(c2nc(OCC3(CN(C)C)CC3)nc3c2CCN(c2cccc4cccc(C)c24)C3)CC1CC#N` (stereo not drawn) [Compound 78, 2-(4-(2-((1-((dimethylamino)methyl)cyclopropyl)methoxy)-7-(8-methylnaphthalen-1-yl)-5,6,7,8-tetrahydropyrido[3,4-d]pyrimidin-4-yl)-1-(2-fluoroacryloyl)piperazin-2-yl)acetonitrile] are 6.68, 6.68 and 8.08.
Consider `C=C(F)C(=O)N1CCN(c2nc(OCC3(CN(C)C)CC3)nc3c2CCN(c2cccc4cccc(Cl)c24)C3)CC1CC#N` (stereo not drawn) [Compound 79, 2-(4-(7-(8-chloronaphthalen-1-yl)-2-((1-((dimethylamino)methyl)cyclopropyl)methoxy)-5,6,7,8-tetrahydropyrido[3,4-d]pyrimidin-4-yl)-1-(2-fluoroacryloyl)piperazin-2-yl)acetonitrile], for which the figures for the pIC50 (in assay [1]; in assay [2]; on KRAS G12C) were 6.36, 6.62 and 8.22, respectively.

These data come from patent US20210040089A1, “KRAS MUTANT PROTEIN INHIBITORS” (Jacobio Pharmaceuticals Co., Ltd., priority 2019, published 2021).
